Columns and labels:
[1] = biological target: T1, STS2-HP (STS2 histidine phosphatase domain) (Homo sapiens, UniProt P57075); assay: pNPP phosphatase inhibition assay, absorbance at […] nm; assay type: biochemical; conditions: read-out: % inhibition at 10 μg/mL
T1 construct: gene UBASH3A
T1 sequence (P57075 385-661 limits assumed): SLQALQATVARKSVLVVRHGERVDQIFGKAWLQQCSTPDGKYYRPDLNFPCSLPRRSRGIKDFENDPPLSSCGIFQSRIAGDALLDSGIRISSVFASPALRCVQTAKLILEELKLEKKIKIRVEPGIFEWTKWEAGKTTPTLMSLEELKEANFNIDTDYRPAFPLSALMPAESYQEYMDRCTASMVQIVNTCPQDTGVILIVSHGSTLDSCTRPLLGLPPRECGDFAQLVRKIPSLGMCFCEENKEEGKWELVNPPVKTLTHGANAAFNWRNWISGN

[2] = biological target: T2, STS1-HP (STS1 histidine phosphatase domain) (Homo sapiens, UniProt Q8TF42); assay: capillary electrophoresis, migration time shift; assay type: binding; conditions: 20 mM PBS, pH 7.0, 20 kV, UV 230 nm
T2 construct: gene UBASH3B
T2 sequence (Q8TF42 380-649 limits assumed): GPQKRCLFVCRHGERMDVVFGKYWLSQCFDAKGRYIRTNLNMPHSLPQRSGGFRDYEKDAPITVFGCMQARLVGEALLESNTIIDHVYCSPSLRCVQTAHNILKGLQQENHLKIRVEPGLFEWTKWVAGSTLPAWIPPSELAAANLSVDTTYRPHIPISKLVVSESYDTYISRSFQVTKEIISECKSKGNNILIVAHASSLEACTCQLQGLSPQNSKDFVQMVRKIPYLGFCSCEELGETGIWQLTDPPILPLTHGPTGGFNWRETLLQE

[3] = biological target: T2, STS1-HP (STS1 histidine phosphatase domain); assay: pNPP phosphatase inhibition assay, absorbance at […] nm; assay type: biochemical; conditions: pNPP substrate, pH 7.2, 25 °C, 10 min; name misprinted as baicalin in b9

`O=c1cc(-c2ccccc2)oc2cc(O)c(O)c(O)c12` [baicalein] was tested, and the inhibition at 10 µg/mL [1] was 13.8%, the “capillary electrophoresis, migration time shift” value [2] was “migration times of STS1 and STS2 proteins were markedly delayed when BC was added” and the “% inhibition at 10 μg/mL” value [3] was “(BC) could significantly inhibit the phosphatase activity of STS1 in vitro”.
